Paper PMC12466451 (Antibiotics, 2025)

Assay: Surfactin C metabolism study: metabolic stability in liver microsomes with NADPH
Assay type: in vitro ADME, chicken
Conditions: for percentage of initial concentration remaining after incubation with microsomes: chicken liver microsomes 0.5 mg/mL, NADPH, 1.0 µM, 37 °C, 120 min; for t1/2 / k (elimination rate constant): chicken liver microsomes; for t1/2: t1/2 = ln(2)/k; for k (elimination rate constant): slope of ln-concentration versus time plot, 0-120 min
Experimental: After determining the presence of surfactin C analogues in F1, BPR-17 and BPR-16, an in vitro metabolism assay was conducted to investigate the bioavailability and stability of these compounds. This study involved incubating the bioactive metabolites with liver microsomes obtained from chickens to predict and evaluate their potential efficacy and bioavailability once digested. The microsomal assay was performed by first harvesting the chicken microsomes from the liver. Once obtained, these were incubated with the surfactin C compounds in the presence of NADPH, which serves as an essential cofactor for cytochrome P450 enzymes. The degradation of surfactin C analogues over time was monitored by measuring their peak areas using LC-MS/MS [29]. Additionally, a positive control compound (verapamil) was used to confirm the metabolic activity of the liver microsomes.
Preparation of microsomes from liver tissue was performed according to the protocols developed by Knights et al. 2016 [45]. Livers from chickens approximately 42 days old were obtained from Golden Cockerel poultry processors (Mount Cotton, QLD, Australia). Immediately after harvesting, the livers were washed in 1.15% KCl in lab grade H2O to remove excess blood and transported to the laboratory on ice for processing. To prepare the microsomes, 10 g of liver tissue was homogenized in buffer (10 mM potassium phosphate, pH 7.4) using an Ultraturrax-style homogeniser with three 30-s bursts, cooling the sample on ice between each burst. The homogenate was then centrifuged at 7000× g for 10 min at 4 °C. The crude pellet was discarded, and the supernatant was further separated by ultracentrifugation at 105,000× g for 60 min at 4 °C. The supernatant was decanted, and the pellet was rinsed with 1 mL of microsome buffer. The rinsing and ultracentrifugation process was repeated twice, and the resulting pellet was resuspended in microsome storage buffer and stored at −80 °C until further use. A Bradford assay was used to determine the concentration of the protein in the sample [46].
The test compounds C13-C1_6 surfactin C (10.0 mM) were prepared in DMSO, and the metabolic stability of test compounds was determined in triplicate in an oscillating water bath (Grant) at 37 °C and 150 RPM [25]. Positive control (verapamil; 0.001 mM) and negative control (without NADPH regeneration system) incubations were conducted concurrently. Tubes containing potassium phosphate buffer (100 mM) at pH 7.4, microsomal protein stock solution (0.5 mg/mL), test compound solution (1.0 µM) and glucose-6-phosphate dehydrogenase (1 IU/mL) were preincubated at 37 °C for 5 min prior to the reaction being initiated by the addition of 25 µL of a 20× stock of an NADPH regeneration system (NRS) containing NADP (1.3 mM). The total incubation volume was 0.5 mL. The mixture was then incubated at 37 °C in an oscillating water bath (Grant) at 150 RPM for 0, 10, 20, 30, 60, and 120 min. At each time point, reactions were terminated by the addition of 150 µL of ice-cold acetonitrile containing cyclosporin A (60 ng/mL) as an internal standard for test compounds or clotrimazole (50 ng/mL) for verapamil. The test tubes were centrifuged at 13,000× g for 5 min, and ~100 µL of supernatant was transferred to polypropylene 96-well plates for LC-MS/MS analysis using a Waters ALLIANCE HPLC system coupled to a Waters Quattro Micro triple quadrupole mass spectrometer (Milford, MA, USA). Chromatographic separation was achieved using a Phenomenex HPLC C18 column (4.6 × 50 mm, 3 µm). Mass spectrometric detection was performed in negative ion multiple reaction monitoring mode with argon as the collision gas. Data acquisition and processing were carried out using MassLynx software (version 4.1, Waters). The half-life (t1/2) of each test compound was calculated using the equation t1/2 = ln(2)/k, where k is the elimination rate constant derived from the slope obtained from the ln-concentration versus time plot.

Q: With C13 surfactin C as the substance, how does the “percentage of initial concentration remaining after incubation with microsomes” value read?
A: Its value is “approximately 84%”.

Q: What about the t1/2 of the same substance?
A: The t1/2 was 1155 min.

Q: For C15 surfactin C, which “percentage of initial concentration remaining after incubation with microsomes” value is on record?
A: The value was roughly 99%.

Q: What about the “k (elimination rate constant)” value of the same substance?
A: The value was 0.0008.

Q: What about the t1/2 of the same substance?
A: The t1/2 was 866.25 min.

Q: Which “percentage of initial concentration remaining after incubation with microsomes” value does the source give for C16 surfactin C here?
A: The value was roughly 92%.

Q: And the “k (elimination rate constant)” value?
A: The value was 0.0007.

Q: What about the t1/2 of the same substance?
A: The t1/2 was 990 min.

Q: For C14 surfactin C, which “percentage of initial concentration remaining after incubation with microsomes” value is on record?
A: Its value is roughly 95%.
